Columns and labels:
[1] = tested on: ocular surface; settings: topical ocular use in humans; cited from earlier work
[2] = tested on: intraocular pressure; settings: ocular; compared with PGF2α; cited from earlier work
[3] = tested on: Dog intraocular pressure; experiment: Intraocular pressure in dogs by applanation pneumatonometry; type: in vivo; settings: 25 μl to the ocular surface, IOP before and at 6 hours after administration, FIG. 9
Experimental: The compounds were prepared at the said concentrations in a vehicle comprising 0.1% polysorbate 80 and 10 mM TRIS base. Dogs were treated by administering 25 μl to the ocular surface, the contralateral eye received vehicle as a control. Intraocular pressure was measured by applanation pneumatonometry. Dog intraocular pressure was measured immediately before drug administration and at 6 hours thereafter.

Structure (SMILES): CCCCC[C@H](O)/C=C/[C@@H]1[C@@H](C/C=C\CCCC(=O)OC(C)C)[C@@H](O)C[C@H]1O [isopropyl ester of PGF2α]
- ocular side effects [1]: ocular surface (conjunctival) hyperemia and foreign-body sensation
- hypotensive potency versus parent compound [2]: significantly greater hypotensive potency than the parent compound

Structure (SMILES): CC(=O)OCC(=O)CCC/C=C\C[C@@H]1[C@@H](/C=C/[C@@H](O)CCc2ccc(Cl)s2)[C@H](OC(C)=O)C[C@@H]1O [Example 102, Acetic Acid (Z)-8-{(1R,2R,3R,5S)-3-acetoxy-2-[(S)-(E)-5-(5-chloro-thiophen-2-yl)-3-hydroxy-pent-1-enyl]-5-hydroxy-cyclopentyl}-2-oxo-oct-6-enyl Ester]
- ocular hypotensive effect [3]: pronounced ocular hypotensive effect

Structure (SMILES): CCCCC[C@H](O)/C=C/[C@@H]1[C@@H](C/C=C\CCCC(=O)O)[C@@H](O)C[C@H]1O [PGF2α, (Z)-7-[(1R,2R,3R,5S)-3,5-Dihydroxy-2-((S)-(E)-3-hydroxyoct-1-enyl)-cyclopentyl]hept-5-enoic Acid]
- ocular side effects [1]: ocular surface (conjunctival) hyperemia and foreign-body sensation

Structure (SMILES): CC(=O)OCC(=O)CCC/C=C\C[C@@H]1[C@@H](/C=C/[C@@H](O)CCc2ccc(Cl)s2)[C@H](O)C[C@@H]1O [Example 101, Acetic Acid (Z)-8-{(1R,2R,3R,5S)-2-[(S)-(E)-5-(5-chloro-thiophen-2-yl)-3-hydroxy-pent-1-enyl]-3,5-dihydroxy-cyclopentyl}-2-oxo-oct-6-enyl Ester]
- ocular hypotensive effect [3]: pronounced ocular hypotensive effect

From US6359181B1, “Cyclopentane 1-hydroxy alkyl or alkenyl-2-one or 2-hydroxy derivatives as therapeutic agents” (Allergan Sales, Inc., priority 2000, dated 2002)
